Laboratory results reported in patent US20110178015A1, “METHODS OF TREATMENT USING BIASED LIGANDS FOR RECEPTORS SUCH AS THE PTH RECEPTOR” (priority 2007, published 2011).

Legend:
[1] = biological target: type I PTH/PTH-related peptide receptor (PTH1R), endogenous in primary murine osteoblasts (mouse) (UniProt P41593); assay: cell-based or functional assay
PTH1 receptor = details: Gardella 1996; Sneddon 2004; Bisello 2002; cited from earlier work
[2] = biological target: T1, AT1A angiotensin receptor (Rattus norvegicus, UniProt P25095); details: cited from earlier work
T1 sequence (P25095 1-359): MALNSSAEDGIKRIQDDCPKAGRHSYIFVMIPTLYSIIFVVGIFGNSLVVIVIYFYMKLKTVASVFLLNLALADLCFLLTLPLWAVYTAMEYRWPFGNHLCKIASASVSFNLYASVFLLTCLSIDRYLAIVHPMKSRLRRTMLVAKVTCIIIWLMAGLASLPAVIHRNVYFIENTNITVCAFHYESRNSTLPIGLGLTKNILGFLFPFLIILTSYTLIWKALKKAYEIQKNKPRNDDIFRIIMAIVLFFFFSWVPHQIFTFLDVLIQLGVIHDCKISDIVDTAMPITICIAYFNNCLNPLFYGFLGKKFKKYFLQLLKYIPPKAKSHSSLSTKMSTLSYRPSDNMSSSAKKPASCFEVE

type I PTH/PTH-related peptide receptor (PTH1R), endogenous in primary murine osteoblasts (mouse), sequence (P41593 27-591): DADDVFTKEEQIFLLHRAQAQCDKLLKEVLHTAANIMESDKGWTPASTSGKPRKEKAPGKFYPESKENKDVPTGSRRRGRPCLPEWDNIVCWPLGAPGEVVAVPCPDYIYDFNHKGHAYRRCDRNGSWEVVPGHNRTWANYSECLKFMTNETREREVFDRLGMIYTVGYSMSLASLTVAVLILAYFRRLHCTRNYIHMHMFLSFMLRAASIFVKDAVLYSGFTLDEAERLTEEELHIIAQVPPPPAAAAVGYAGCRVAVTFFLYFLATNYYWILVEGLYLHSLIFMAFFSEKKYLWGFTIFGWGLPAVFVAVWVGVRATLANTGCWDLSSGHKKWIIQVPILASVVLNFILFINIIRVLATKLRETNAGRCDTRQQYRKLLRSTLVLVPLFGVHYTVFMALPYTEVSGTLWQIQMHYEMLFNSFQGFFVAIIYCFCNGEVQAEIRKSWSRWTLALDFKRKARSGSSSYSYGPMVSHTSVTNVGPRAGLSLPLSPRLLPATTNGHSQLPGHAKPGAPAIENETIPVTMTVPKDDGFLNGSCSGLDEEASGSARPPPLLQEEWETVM

(D-Trp12, Tyr34)-PTH(7-34) (from UniProt P01268 38-65) (peptide)
ERK1/2 phosphorylation in WT primary osteoblasts, 1 µM PTH-βarr, 5 min (fold over basal) [1]: 3

PTH(1-34) (peptide)
ERK1/2 phosphorylation in WT primary osteoblasts, 100 nM PTH(1-34), 5 min (fold over basal) [1]: 3

Trp^l-PTHrP(1-36) (WVSEHQLLHDKGKSIQDLRRRFFLHHLIAEIHTAEI; Parathyroid hormone-related protein; UniProt P12272 37-72, looked up, variant A1W) [PTHrP analog promoting Gs-coupling without β-arrestin recruitment, reference compound]
PTH1 receptor-Gs coupling / cAMP production (PTH1 receptor): promoting Gs-coupling and cAMP production | arrestin-dependent sequestration / β-arrestin recruitment (PTH1 receptor): without inducing β-arrestin recruitment or desensitization

[Sar1,Ile4,Ile8]SII
G protein-independent/β-arrestin-dependent signaling to ERK1/2 [2]: selectively stimulating G protein-independent/β-arrestin-dependent 7TMR signaling to ERK1/2
